The test system of assay [1] is H. pylori. Briefly: minimum inhibitory concentrations (MIC) for seven strains of H. pylori. As to conditions: Helicobacter pylori, read-out: minimum inhibitory concentration (MIC). In kind it is cell-based.
For assay [2], the system named is H. pylori. The assay is described as follows: Test of inhibition of H. pylori by drug structure (OD 450 nm, bacterial inhibition rate). Conditions: seven strains; added at minimum inhibitory concentration; 37° C., anaerobic, 48 hours. It counts as cell-based. The method, then: First, bacterial fluids of seven different strains of H. pylori are provided. […] The bacterial fluids of the seven different strains of H. pylori are placed in four 15 ml microcentrifuge tubes, respectively. Each microcentrifuge tube contains 5 ml of H. pylori bacterial fluid. The four microcentrifuge tubes are defined as experimental group 1, experimental group 2, experimental group 3 and control group, respectively. Then, amoxicillin of the minimum inhibitory concentration is added to experimental group 1 of each strain of H. pylori, sample 3 (i.e., drug carrier) of the minimum inhibitory concentration is added to experimental group 2 of each strain of H. pylori, sample C (i.e., drug structure) of amoxicillin of the minimum inhibitory concentration is added to experimental group 3 of each strain of H. pylori, and nothing is added to the control group. Afterward, experimental groups 1-3 and control group of each strain of H. pylori are placed in an incubator to be cultured therein at 37° C., in an anaerobic environment, and for 48 hours. At the end of the 48-hour culturing process, bacterial fluids are extracted from the experimental groups 1-3 and control group of the strains of H. pylori, respectively. OD values of the bacterial fluid of the experimental groups and the bacterial fluid of the control group are measured with a spectrophotometer at a wavelength of 450 nm. […]

In brackets after ≈: the same amount, converted by molar mass. Read-outs that look alike come from different tables or passages of the source.

As to `CC1(C)S[C@@H]2[C@H](NC(=O)[C@H](N)c3ccc(O)cc3)C(=O)N2[C@H]1C(=O)O` [amoxicillin], the MIC in assay [1] (H. pylori strain NO. 125-54) stood at 0.5 µg/mL (≈ 1.37 µM); in assay [1] (H. pylori strain NO. 125-56), 0.25 µg/mL (≈ 0.684 µM); in assay [1] (H. pylori strain NO. 125-57), 0.25 µg/mL (≈ 0.684 µM); in assay [1] (H. pylori strain NO. 126-6), 0.016 µg/mL (≈ 0.0438 µM); in assay [1] (H. pylori strain NO. 127-4) it was 0.0625 µg/mL (≈ 0.171 µM); in assay [1] (H. pylori strain NO. 127-9) it was 0.0625 µg/mL (≈ 0.171 µM). The MIC in assay [1] (H. pylori strain NO. 127-10) amounted to 0.125 µg/mL (≈ 0.342 µM). Moreover, the “inhibitory effect on H. pylori” value in assay [2] is given as “different degrees of inhibition efficacy”.

For the origin of these results see patent US10709788B2, “Chitosan magnetic particle drug carrier, drug structure, and method of making” (GENE'E TECH CO., LTD., priority 2018, dated 2020).
